Measurements reported in article PMC9166766 (Experimental & Molecular Medicine, 2022).
No end group written: not given here.

Tested on: Jurkat T cells (PMA and ionomycin-induced gene expression)
Experiment: mRNA sequencing of activated Jurkat T cells
Assay type: cell-based, human
Procedure: We then extracted RNA from these cells. Construction of the cDNA library and next-generation sequencing was performed at LAS (Gimpo, Korea). We sequenced all samples on an Illumina NextSeq 500 system with 75 paired-end reads. For the RNA sequencing analysis, reads for each sample were aligned to the human genome (GRCh37/hg19 genome assembly) using STAR 2.4.0.1[25] with default settings. We used HOMER tools to quantify and normalize the defined genes in RefSeq transcripts. FPKM normalized genes were hierarchically clustered using Cluster3.0[26]. We visualized refined data with Java Treeview (http://jtreeview.sourceforge.net). We conducted gene ontology analysis of each cluster using the DAVID web tool (https://david.ncifcrf.gov). Finally, we visualized the expression levels of target genes using the Integrative Genomics Viewer (http://software.broadinstitute.org/software/igv). The raw data were submitted to the NCBI Gene Expression Omnibus under accession number GSE185561.
Fig. 3 The CABIN1 peptide inhibits T-cell activation. a Heatmap of altered genes affected by FK506 treatment or CABIN1 peptide expression upon T-cell activation. b Gene Ontology analysis of cluster III. c mRNA expression levels of genes included in cluster III. d qRT-PCR data of genes in c. The experiment was independently repeated at least three times, and the data are presented as the mean ± standard deviation. Statistical differences were determined using two-tailed Student’s t-test. *p < 0.05, **p < 0.01, ***p < 0.001, NC negative control.

## CABIN1-L-1-2: 10 amino acids from proline 2146 to proline 2155 of full-length CABIN1; expressed GST-, GAL4 DBD- or HA-mCherry-tagged (PEITVTPPTP; also: expressed GST-, GAL4 DBD- or HA-mCherry-tagged, end not given here)
Jurkat, PMA and ionomycin 8 h
  CD27 and CD70 expression: repressed
  RNA levels of T-cell activation markers (IL2, IL3, NFATC1, CCL4, CCL20, CXCL8): reduced the RNA levels
P+I 8 h, NC 0, NC_P+I 3.268
  TM4SF1 expression: 0.907 FPKM
P+I 8 h, NC 0, NC_P+I 3.759
  CD200 expression: 0.094 FPKM
P+I 8 h, NC 0, NC_P+I 6.38
  ZP4 expression: 5.182 FPKM
P+I 8 h, NC 0, NC_P+I 6.448
  CCL3L1 expression: 0.079 FPKM
P+I 8 h, NC 0, NC_P+I 6.524
  CCL3L3 expression: 0.079 FPKM
P+I 8 h, NC 0, NC_P+I 9.86
  CCL1 expression: 0.415 FPKM
P+I 8 h, NC 0, NC_P+I 10.173
  NR4A2 expression: 0.356 FPKM
P+I 8 h, NC 0, NC_P+I 12.758
  CCL4L2 expression: 0.328 FPKM
P+I 8 h, NC 0, NC_P+I 13.27
  CCL4L1 expression: 0.328 FPKM
P+I 8 h, NC 0, NC_P+I 23.497
  CSF2 expression: 0.314 FPKM
P+I 8 h, NC 0, NC_P+I 49.113
  XCL1 expression: 1.144 FPKM
P+I 8 h, NC 0, NC_P+I 52.239
  CCL3 expression: 0.502 FPKM
P+I 8 h, NC 0, NC_P+I 59.393
  CCL20 expression: 1.279 FPKM
P+I 8 h, NC 0, NC_P+I 229.054
  IL3 expression: 6.298 FPKM
P+I 8 h, NC 0, NC_P+I 247.287
  CCL4 expression: 4.062 FPKM
P+I 8 h, NC 0, NC_P+I 397.807
  IL2 expression: 12.964 FPKM
P+I 8 h, NC 0.006, NC_P+I 3.907
  C3 expression: 1.329 FPKM
P+I 8 h, NC 0.008, NC_P+I 13.196
  TNS3 expression: 1.418 FPKM
P+I 8 h, NC 0.019, NC_P+I 4.717
  PLS3 expression: 0.37 FPKM
P+I 8 h, NC 0.031, NC_P+I 4.533
  CREB5 expression: 1.966 FPKM
P+I 8 h, NC 0.034, NC_P+I 8.439
  IRF4 expression: 2.092 FPKM
P+I 8 h, NC 0.037, NC_P+I 26.755
  CXCL8 expression: 3.327 FPKM
P+I 8 h, NC 0.042, NC_P+I 5.663
  SLAMF1 expression: 0.275 FPKM
P+I 8 h, NC 0.045, NC_P+I 69.958
  TNFSF14 expression: 4.255 FPKM
P+I 8 h, NC 0.048, NC_P+I 23.616
  IL21R-AS1 expression: 3.991 FPKM
P+I 8 h, NC 0.056, NC_P+I 70.747
  XCL2 expression: 2.074 FPKM
P+I 8 h, NC 0.063, NC_P+I 3.697
  LIF expression: 0.231 FPKM
P+I 8 h, NC 0.069, NC_P+I 4.391
  SHC4 expression: 0.686 FPKM
P+I 8 h, NC 0.077, NC_P+I 29.102
  RGS16 expression: 5.595 FPKM
P+I 8 h, NC 0.1, NC_P+I 34.712
  IL21R expression: 5.255 FPKM
P+I 8 h, NC 0.104, NC_P+I 100.175
  CRTAM expression: 9.51 FPKM
P+I 8 h, NC 0.107, NC_P+I 4.985
  ZNF704 expression: 0.183 FPKM
P+I 8 h, NC 0.167, NC_P+I 7.941
  NTRK1 expression: 1.657 FPKM
P+I 8 h, NC 0.188, NC_P+I 17.377
  PHEX expression: 0.786 FPKM
P+I 8 h, NC 0.196, NC_P+I 5.08
  SORBS1 expression: 0.511 FPKM
P+I 8 h, NC 0.255, NC_P+I 4.095
  TIAM2 expression: 0.301 FPKM
P+I 8 h, NC 0.268, NC_P+I 3.029
  CRIM1 expression: 0.333 FPKM
P+I 8 h, NC 0.28, NC_P+I 85.882
  SERPINB2 expression: 14.103 FPKM
P+I 8 h, NC 0.321, NC_P+I 6.436
  CCND2 expression: 0.99 FPKM
P+I 8 h, NC 0.604, NC_P+I 14.322
  CXCR3 expression: 1.803 FPKM
P+I 8 h, NC 0.798, NC_P+I 56.893
  ISM1 expression: 3.737 FPKM
P+I 8 h, NC 0.84, NC_P+I 7.506
  C10orf54 expression: 0.487 FPKM
P+I 8 h, NC 0.848, NC_P+I 13.43
  CSF1 expression: 2.594 FPKM
P+I 8 h, NC 0.887, NC_P+I 9.069
  SLC35E4 expression: 1.517 FPKM
P+I 8 h, NC 0.975, NC_P+I 3.401
  ZNF827 expression: 1.372 FPKM
P+I 8 h, NC 1.101, NC_P+I 61.146
  CD70 expression: 7.606 FPKM
P+I 8 h, NC 1.154, NC_P+I 5.577
  PAM expression: 1.934 FPKM
P+I 8 h, NC 1.167, NC_P+I 8.247
  FOXO1 expression: 3.736 FPKM
P+I 8 h, NC 1.168, NC_P+I 14.813
  IRF8 expression: 1.914 FPKM
P+I 8 h, NC 1.25, NC_P+I 3.933
  SCHIP1 expression: 1.333 FPKM
P+I 8 h, NC 1.294, NC_P+I 7.508
  FOSL2 expression: 2.362 FPKM
P+I 8 h, NC 1.393, NC_P+I 7.107
  TNFSF9 expression: 2.651 FPKM
P+I 8 h, NC 1.402, NC_P+I 4.253
  IQCJ-SCHIP1 expression: 1.234 FPKM
P+I 8 h, NC 1.417, NC_P+I 9.105
  STAT5A expression: 3.055 FPKM
P+I 8 h, NC 1.428, NC_P+I 25.902
  TDRD9 expression: 1.888 FPKM
P+I 8 h, NC 1.468, NC_P+I 5.071
  LOC729603 expression: 3.329 FPKM
P+I 8 h, NC 1.497, NC_P+I 26.809
  PDGFA expression: 8.169 FPKM
